In patent publication US20060142204A1, “Pyrrolidine derivatives for use in treating heaptitis c virus infection” (GENOSCIENCE, priority 2002, published 2006):
Like-named read-outs stand apart in the source and are kept apart here. Non-standard residues stand in square brackets, D forms with d. Residues, ends and D or L forms follow the SMILES beside them. *: point of attachment. dGla = N[C@H](CC(C(=O)O)C(=O)O)C(=O)O; Hyp = O=C(O)[C@@H]1C[C@@H](O)CN1; Cha = N[C@@H](CC1CCCCC1)C(=O)O; Abu = CC[C@H](N)C(=O)O; tBu = CC(C)(C)*

Key:
[1] = biological target: full-length NS3/NS4A complex (Hepatitis C virus genotype 1a, UniProt P27958); test: biochemical
From the text: Operating Method for HCV NS3-4A Activity Assay:
Inhibition data were obtained on the full-length NS3/NS4A complex. […] A summary of the NS3 protease activity assay is described bellow.
We used the full-length NS4A-NS3 protease and a recombinant EGPF-NS5A/B-CBD fusion protein serving as a fluorescent substrate for the determination of the compounds activity.
The fluorogenic substrate was built in three parts: a Green fluorescent protein (EGFP), a peptide corresponding to the NS5A-NS5B junctions ([…]) and a Cellulose Binding Domain (CBD). The NS5A/B is the more efficiently cleavage site for NS3 than at other cleavage site of HCV polyprotein (references 15). After cleavage reaction of EGFP-NS5A/B-CBD by NS3, the un-cleaved substrate and the C-terminal domain of cleaved substrate are fixed on cellulose. After centrifugation, the released free EGFP-NS5A was quantified by fluorometry.
The inhibitors were tested in triplicate in each experiment. The inhibitor was pre-incubated with the NS3 enzyme (50 nM final concentration) for 5 minutes at 37° C. The substrate was added (100 nM final concentration) and incubated at 37° C. for 40 minutes. Then, the reaction mixture was transferred into an Eppendorf containing 5 mg of pre-equilibrated cellulose with reaction buffer 1× and agitated at room temperature for 10 minutes followed by centrifugation for 5 min at 13000 rpm. The supernatant (100 μL) containing liberated green fluorescent protein was transferred to a black 96 well plate and data was collected by a fluorometer (excitation λ=485 nm, and emission λ=538 nm). For each black 96 well plate the control of the activity and inhibition of NS3 protease, fluorescence background noise and the measure of the total fluorescence were performed. The fluorogenic substrate EGFP-NS5A/B-CBD at 100 nM final concentration was incubated with NS3 protease at 50 nM final concentration for the control of the NS3 activity. The inhibitors Ac-Asp-D-Gla-Leu-Ile-β-cyclohexyl-Ala-Cys-OH (CHAC), (references 16) PMSF and TPCK were used at various concentrations to validate the inhibition of NS3 protease reaction. The fluorescence background noise was obtained with the fluorogenic substrate EGFP-NS5A/B-CBD at 100 nM, and the control of the maximum fluorescence was obtained with the fluorogenic substrate EGFP-NS5A/B-CBD at 100 nM without the step of the fixation on pre-equilibrated cellulose.

[2] = test system: four different strains; test: ames test; conditions: with or without metabolic activation
From the text: The compounds of the present invention present the advantage to be non bactericidal and/or non mutagenic. The ames test with four different strains, with or without metabolic activation, has been carried out with the above cited compounds (in particular, compound 5). The results thereof have shown that the compounds above identified (in particular, compound 5) are non mutagenic.

[3] = test system: HCV; test: HCV replication in primary cultures of human hepatocytes infected in vitro; assay type: cell-based, HCV genotype 3 (serum S183) in human hepatocytes; conditions: 1 μM of compound; hepatocyte cultures FT200, FT201, FT203; 5 days; FIG. 5
Experimental: More particularly, the in vitro primary cultures of human hepatocytes were prepared as follows: hepatocytes were prepared from liver tissue resected from donors who tested negative for HCV, and inoculation was performed 3 days after plating with 33 HCV serum samples of different virus load and genotype. The presence of intracellular HCV RNA, detected by a strand-specific rTth RT-PCR assay, was used as evidence of infection. […] At day 5, the copy level of viral RNA was estimated to be amplified at least 15-fold in infected cells. […] This model represents therefore a valuable tool for the study of initial steps of the HCV replication cycle and for the evaluation of antiviral molecules.
The basic protocol was as follows: 1) human hepatocytes extracted from liver lobectomies of HCV-negative patients were cultured in the long-term culture system mentioned above; 2) cells were then infected in vitro with an aliquot of serum from HCV-positive patients; 3) after a few days of culture (1 to 14 days), cellular RNA was extracted and analyzed for HCV RNA (+) and (−) strands using a highly specific rtTh. […]
RNA was extracted and analyzed using: first, rtTh RT-PCR and agarose gel electrophoresis (control of the presence of the replicative strand); and second, quantitative RT-PCR using (a) the genomic strand of HCV, and (b) GAPDH RNA/GAPDH RNA as an internal control. […]

[4] = enzyme 50 nM, substrate 100 nM, 37° C., 40 minutes, read-out: NS3 IC50

Chain of full-length NS3/NS4A complex (P27958 1027-1657): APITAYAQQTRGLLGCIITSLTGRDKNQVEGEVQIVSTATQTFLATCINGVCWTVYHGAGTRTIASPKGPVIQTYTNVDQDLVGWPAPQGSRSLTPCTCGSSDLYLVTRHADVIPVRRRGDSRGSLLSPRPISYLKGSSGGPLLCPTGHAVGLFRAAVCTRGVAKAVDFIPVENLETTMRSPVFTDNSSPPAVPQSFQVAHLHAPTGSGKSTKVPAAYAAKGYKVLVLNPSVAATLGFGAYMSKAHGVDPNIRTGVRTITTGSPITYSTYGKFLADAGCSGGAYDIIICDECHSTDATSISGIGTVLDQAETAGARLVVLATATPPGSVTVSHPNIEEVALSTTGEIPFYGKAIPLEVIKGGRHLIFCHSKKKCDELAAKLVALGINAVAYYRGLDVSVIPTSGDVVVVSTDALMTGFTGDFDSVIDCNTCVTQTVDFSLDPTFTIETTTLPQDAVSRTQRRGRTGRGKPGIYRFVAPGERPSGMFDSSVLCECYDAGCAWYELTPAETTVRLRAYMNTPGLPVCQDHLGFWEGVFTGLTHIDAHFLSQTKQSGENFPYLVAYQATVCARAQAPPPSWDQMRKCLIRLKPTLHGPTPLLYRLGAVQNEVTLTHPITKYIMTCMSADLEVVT
Chain of full-length NS3/NS4A complex (P27958 1658-1711): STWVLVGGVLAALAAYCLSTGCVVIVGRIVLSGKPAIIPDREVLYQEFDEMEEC

SMILES	IC50 [1, 4] [µM]	mutagenicity (ames test) [2]	Inhibitory effect expressed as the ratio HCV RNA/GAPDH RNA [3]	IC50 [1] [µM]
CC[C@H](NC(=O)[C@@H]1C[C@@H](OC(C)(C)C)CN1C(=O)[C@@H](NC(C)=O)C(C)C)C(=O)O [Compound 18] (Ac-Val-[Hyp](tBu)-[Abu]-OH)	30			
CC(C)(C)OC(=O)N[C@@H](CCC(=O)O)C(=O)N1C[C@H](OC(C)(C)C)C[C@H]1C(=O)NC(CC(F)(F)F)C(=O)O (stereo partly drawn) [Compound 5]	150	non mutagenic	significant inhibitory effect	
Cc1ccc(S(=O)(=O)NC(Cc2ccccc2)C(=O)CCl)cc1 [TPCK, L-1-4′-Tosylamino-2-phenylethyl chloromethyl ketone, reference compound]				900
CC[C@H](C)[C@H](NC(=O)[C@H](CC(C)C)NC(=O)[C@@H](CC(C(=O)O)C(=O)O)NC(=O)[C@H](CC(=O)O)NC(C)=O)C(=O)N[C@@H](CC1CCCCC1)C(=O)N[C@@H](CS)C(=O)O [CHAC, Ac-Asp-D-Gla-Leu-Ile-β-cyclohexyl-Ala-Cys-OH, reference compound] (Ac-D[dGla]LI[Cha]C-OH)				0.04
